What was measured:
Format in all cases: in vivo
[1] = tested on: wild oats (Avena fatua, AVEFA); experiment: Synergistic herbicidal activity, foliar track sprayer; settings: nonanoic acid 1120 g ae/ha alone, 14 days, 1% crop oil concentrate
Description: (§1) Methylidene mevalonate alone and in combination with nonanoic acid was applied to the foliage of rapidly growing plant material utilizing a track sprayer calibrated to deliver an application volume of 187 L/ha. These treatments were applied to both broadleaf and grass weed species. All treatments contained 1% crop oil concentrate. Assessment of herbicidal activity was performed visually relative to untreated controls after 14 days incubation in the greenhouse. Species abbreviations are as previously defined.

[2] = tested on: lambsquarters (Chenopodium album, CHEAL); experiment: as above; settings: nonanoic acid 1120 g ae/ha alone, 14 days, 1% crop oil concentrate
Description: as §1

[3] = tested on: crabgrass (Digitaria sanguinalis, DIGSA); experiment: as above; settings: nonanoic acid 1120 g ae/ha alone, 14 days, 1% crop oil concentrate
Description: as §1

[4] = tested on: morningglory (Ipomoea hederacea, IPOHE); experiment: as above; settings: nonanoic acid 1120 g ae/ha alone, 14 days, 1% crop oil concentrate
Description: as §1

[5] = tested on: shattercane (Sorghum vulgare, SORVU); experiment: Post-emergent evaluation; settings: for GR80: data gathered 15 days after treatment, probit analysis
Description: (§2) Seeds of the desired test plant species were planted in Grace-Sierra MetroMix® 306 planting mixture, which typically has a pH of 6.0 to 6.8 and an organic matter content of about 30 percent, in plastic pots with a surface area of 64 square centimeters. When required to ensure good germination and healthy plants, a fungicide treatment and/or other chemical or physical treatment was applied. The plants were grown for 7-21 days in a greenhouse with an approximate 15 hr photoperiod which was maintained at about 23-29° C. during the day and 22-28° C. during the night. Nutrients and water were added on a regular basis and supplemental lighting was provided with overhead metal halide 1000-Watt lamps as necessary. The plants were employed for testing when they reached the first or second true leaf stage.
(§3) A weighed amount, determined by the highest rate to be tested, of each test compound was placed in a 20 mL glass vial and was dissolved in 4 mL of a 97:3 v/v (volume/volume) mixture of acetone and dimethyl sulfoxide (DMSO) to obtain concentrated stock solutions. […] The concentrated stock solutions obtained were diluted with an aqueous mixture containing acetone, water, isopropyl alcohol, DMSO, Atplus 411F crop oil concentrate, and Triton X-155 surfactant in a 48.5:39:10:1.5:1.0:0.02 v/v ratio to obtain spray solutions of known concentration. The solutions containing the highest concentration to be tested were prepared by diluting 2 mL aliquots of the stock solution with 13 mL of the mixture and lower concentrations were prepared by serial dilution of the stock solution. Approximately 1.5 mL aliquots of each solution of known concentration were sprayed evenly onto each of the test plant pots using a DeVilbiss atomizer driven by compressed air pressure of 2 to 4 psi ([…]) to obtain thorough coverage of each plant. Control plants were sprayed in the same manner with the aqueous mixture. In this test an application rate of 1 ppm results in the application of approximately 1 g/Ha.
(§4) The treated plants and control plants were placed in a greenhouse as described above and watered by sub-irrigation to prevent wash-off of the test compounds. […] Species abbreviations as described for Table I with the following additions: soybean (Glycine max, GLXMA), rape (Brassica napus, BRSNN), chickweed (Stellaria media, STEME), cocklebur (Xanthium strumarium XANST), lambsquarters (Chenopodium album, CHEAL), violet (Viola tricolor, VIOTR), bindweed (Polygonum convolvulus, POLCO), spurge (Euphorbia heterophylla, EPHHL), Canada thistle (Cirsium arvense, CIRAR), corn (Zea mays, ZEAMX), rice (Oryza sativa, ORYSA), wheat (Triticum aestivum, TRZAS), crabgrass (Digitaria sanguinalis, DIGSA), shattercane (Sorghum vulgare, SORVU) and yellow nutsedge (Cyperus esculentus, CYPES).
(§5) By applying the well-accepted probit analysis as described by J. Berkson in Journal of the American Statistical […], 48, 565 (1953) and by D. Finney in “Probit Analysis” Cambridge University Press (1952), similar data can be used to calculate GR80 values, which are defined as growth reduction factors that correspond to the effective dose of herbicide required to kill or control 80 percent of a target plant. Species abbreviations are as previously defined.

[6] = tested on: velvetleaf (Abutilon theophrasti, ABUTH); experiment: Post-emergent evaluation; settings: data gathered 15 days after treatment, probit analysis
Description: as §2, §3, §4, §5

[7] = tested on: giant foxtail (Setaria faberi, SETFA); experiment: Post-emergent evaluation; settings: for GR80: data gathered 15 days after treatment, probit analysis; for % growth reduction at the lowest rate tested: 15 days after treatment
Description: as §2, §3, §4, §5

[8] = tested on: barnyardgrass (Echinochloa crusgalli, ECHCG); experiment: Post-emergent evaluation; settings: for GR80: data gathered 15 days after treatment, probit analysis; for % growth reduction at the lowest rate tested: 15 days after treatment
Description: as §2, §3, §4, §5

[9] = tested on: morningglory (Ipomoea hederacea, IPOHE); experiment: Post-emergent evaluation; settings: data gathered 15 days after treatment, probit analysis
Description: as §2, §3, §4, §5

[10] = tested on: chickweed (Stellaria media, STEME); experiment: Post-emergent evaluation; settings: data gathered 15 days after treatment, probit analysis
Description: as §2, §3, §4, §5

[11] = tested on: violet (Viola tricolor, VIOTR); experiment: Post-emergent evaluation; settings: data gathered 15 days after treatment, probit analysis
Description: as §2, §3, §4, §5

[12] = tested on: crabgrass (Digitaria sanguinalis, DIGSA); experiment: Post-emergent evaluation; settings: data gathered 15 days after treatment, probit analysis
Description: as §2, §3
(§6) The treated plants and control plants were placed in a greenhouse as described above and watered by sub-irrigation to prevent wash-off of the test compounds. After 2 weeks the condition of the test plants as compared with that of the untreated plants was determined visually and scored on a scale of 0 to 100 percent where 0 corresponds to no injury and 100 corresponds to complete kill. Species abbreviations as described for Table I with the following additions: soybean (Glycine max, GLXMA), rape (Brassica napus, BRSNN), chickweed (Stellaria media, STEME), cocklebur (Xanthium strumarium XANST), lambsquarters (Chenopodium album, CHEAL), violet (Viola tricolor, VIOTR), bindweed (Polygonum convolvulus, POLCO), spurge (Euphorbia heterophylla, EPHHL), Canada thistle (Cirsium arvense, CIRAR), corn (Zea mays, ZEAMX), rice (Oryza sativa, ORYSA), wheat (Triticum aestivum, TRZAS), crabgrass (Digitaria sanguinalis, DIGSA), shattercane (Sorghum vulgare, SORVU) and yellow nutsedge (Cyperus esculentus, CYPES).
as §5

[13] = tested on: yellow nutsedge (Cyperus esculentus, CYPES); experiment: Post-emergent evaluation; settings: data gathered 15 days after treatment, probit analysis
Description: as §2, §3, §6, §5

test plant species = experiment: Biological assays of the enantiomers (herbicidal activity); settings: resolved enantiomers
Description: as §2, with “The plants were employed for testing when they reached the first or second true leaf stage.” left out
A weighed amount, determined by the highest rate to be tested, of each test compound was placed in a 20 mL glass vial and was dissolved in 4 mL of a 97:3 v/v (volume/volume) mixture of acetone and dimethyl sulfoxide (DMSO) to obtain concentrated stock solutions. […]
The treated plants and control plants were placed in a greenhouse as described above and watered by sub-irrigation to prevent wash-off of the test compounds. After 2 weeks the condition of the test plants as compared with that of the untreated plants was determined visually and scored on a scale of 0 to 100 percent where 0 corresponds to no injury and 100 corresponds to complete kill. […]

`CCCCCCCCC(=O)O` [Nonanoic Acid, nonanoic acid, reference compound] was tested, and the “Actual Injury % growth reduction” value [1] was 0%, the “Actual Injury % growth reduction” value [2] was 0% and the “Actual Injury % growth reduction” value [3] was 0%. The “Actual Injury % growth reduction” value [4] was 0%.
For `C=C(CO)C(C)(O)CC(=O)[O-].[K+]` (racemic), the GR80 [5] was 400 g ae/ha, the GR80 [6] was 720 g ae/ha and the GR80 [7] was < 375 g ae/ha. The “% growth reduction at the lowest rate tested” value [7] was 95%, the GR80 [8] was < 375 g ae/ha and the “% growth reduction at the lowest rate tested” value [8] was 98%. For the same compound, the GR80 [9] was 375 g ae/ha, the GR80 [10] was 2089 g ae/ha and the GR80 [11] was 1768 g ae/ha. It also gave a GR80 [12] of 1003 g ae/ha and a GR80 [13] of 603 g ae/ha.
With `C=C(CO)C(C)(O)CC(=O)[O-].[K+]` (single isomer, unassigned; (+)) [(+)-4-Methylidene Mevalonate, Potassium Salt] the GR80 ([5]; Potassium Salt) was 490 g ae/ha, the GR80 ([6]; Potassium Salt) was 1135 g ae/ha and the GR80 ([7]; Potassium Salt) was 183 g ae/ha. The GR80 ([8]; Potassium Salt) was 351 g ae/ha, the GR80 ([9]; Potassium Salt) was 341 g ae/ha and the GR80 ([10]; Potassium Salt) was 1349 g ae/ha. The GR80 ([11]; Potassium Salt) was 1865 g ae/ha, the GR80 ([12]; Potassium Salt) was 916 g ae/ha and the GR80 ([13]; Potassium Salt) was 429 g ae/ha. The herbicidal activity (test plant species) was “herbicidal activity was manifested”.
For `C=C(CO)C(C)(O)CC(=O)[O-].[K+]` (single isomer, unassigned; (-)) [(−)-4-Methylidene Mevalonate, Potassium Salt], the GR80 ([5]; Potassium Salt) was >1500 g ae/ha, the GR80 ([6]; Potassium Salt) was >1500 g ae/ha and the GR80 ([7]; Potassium Salt) was >1500 g ae/ha. For the same compound, the GR80 ([8]; Potassium Salt) was >1500 g ae/ha, the GR80 ([9]; Potassium Salt) was >1500 g ae/ha and the GR80 ([10]; Potassium Salt) was >1500 g ae/ha. For the same compound, the GR80 ([11]; Potassium Salt) was >1500 g ae/ha, the GR80 ([12]; Potassium Salt) was >1500 g ae/ha and the GR80 ([13]; Potassium Salt) was >1500 g ae/ha.
`C=C1COC(=O)CC1(C)O` (centres unmarked) [Methylidene Mevalonolactone] showed a GR80 [5] of 615 g ae/ha, a GR80 [6] of 2266 g ae/ha and a GR80 [7] of 430 g ae/ha. The GR80 [8] was < 375 g ae/ha, the “% growth reduction at the lowest rate tested” value [8] was 100% and the GR80 [9] was 725 g ae/ha. The GR80 [10] was 3032 g ae/ha, the GR80 [11] was 2473 g ae/ha and the GR80 [12] was 834 g ae/ha. The GR80 [13] was 834 g ae/ha.
With `C=C(CO)C(C)(O)CC(=O)[O-].[Na+]` (racemic) the GR80 [5] was < 375 g ae/ha, the “% growth reduction at the lowest rate tested” value ([5]; lowest rate tested, 15 days after treatment) was 93% and the GR80 [6] was 965 g ae/ha. For the same compound, the GR80 [7] was < 375 g ae/ha, the “% growth reduction at the lowest rate tested” value [7] was 97% and the GR80 [8] was < 375 g ae/ha. The “% growth reduction at the lowest rate tested” value [8] was 98%, the GR80 [9] was 416 g ae/ha and the GR80 [10] was 1358 g ae/ha. It also gave a GR80 [11] of 2290 g ae/ha, a GR80 [12] of 774 g ae/ha and a GR80 [13] of 375 g ae/ha.

From US7393812B2, “Methylidene mevalonates and their use as herbicides” (Dow AgroSciences LLC, priority 2004, dated 2008)
